In the NIST ThermoML archive (doi:10.1016/j.jct.2015.05.020):
Numbers after ± are expanded uncertainties.

Experiments:
[1] = Crystal; visual observation
[2] = Molar enthalpy of transition or fusion; conditions: Crystal; DSC

For COc1cc(C=O)ccc1O [vanillin], the Normal melting temperature [1] was 81.60 ± 1.1 °C and the “Molar enthalpy of transition or fusion” value [2] was 5.92 ± 0.406 kcal/mol.
